Laboratory results reported in ChEMBL document CHEMBL1201862, “PubChem BioAssay data set” (2004).
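Exposure lasted 48 hours, with cells grown in 96-well plates and compounds tested at five concentrations. The concentration for 50% growth inhibition is given as GI50.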 Active and inactive are the calls of the source. No stated cut-off is given here; in the data, active = GI50 up to about 1.1 µM and inactive = higher. Where a SMILES comes first, the peptide text is derived from it. The star is where a group is joined. Cbz = O=C(OCc1ccccc1)*

Legend:
Test in all cases: inhibition of tumour cell growth, NCI panel, 48 h
KM12 = test system: KM12
Malme-3M = test system: Malme-3M
HL-60 = test system: HL-60
A498 = test system: A498
PC-3 = test system: PC-3
SK-MEL-5 = test system: SK-MEL-5
COLO 205 = test system: COLO 205
UO-31 = test system: UO-31
MDA-MB-231 = test system: MDA-MB-231
SNB-19 = test system: SNB-19
SW-620 = test system: SW-620
RPMI-8226 = test system: RPMI-8226
RXF 393 = test system: RXF 393
OVCAR-5 = test system: OVCAR-5
SN12C = test system: SN12C
HT-29 = test system: HT-29
HCC 2998 = test system: HCC 2998
NCI-H522 = test system: NCI-H522
OVCAR-8 = test system: OVCAR-8

| Compound | GI50 (KM12) | GI50 (Malme-3M) | GI50 (HL-60) | GI50 (A498) | GI50 (PC-3) | GI50 (SK-MEL-5) | GI50 (COLO 205) | GI50 (UO-31) | GI50 (MDA-MB-231) | GI50 (SNB-19) | GI50 (SW-620) | GI50 (RPMI-8226) | GI50 (RXF 393) | GI50 (OVCAR-5) | GI50 (SN12C) | GI50 (HT-29) | GI50 (HCC 2998) | GI50 (NCI-H522) | GI50 (OVCAR-8) |
| --- | --- | --- | --- | --- | --- | --- | --- | --- | --- | --- | --- | --- | --- | --- | --- | --- | --- | --- | --- |
| O=C1/C(=C/c2ccc(Oc3ccccc3)cc2)N=C(c2ccccc2)N1c1ccc(S(=O)(=O)Nc2nccs2)cc1 | 5.15 µM (inactive) | 19.1 µM (inactive) | 6.73 µM (inactive) | 18.1 µM (inactive) | 25.4 µM (inactive) | 17.5 µM (inactive) | 8.3 µM (inactive) | 21.8 µM (inactive) | 28.2 µM (inactive) | 35.3 µM (inactive) | 13.9 µM (inactive) | 6.34 µM (inactive) | 17 µM (inactive) | 40.4 µM (inactive) | 39.8 µM (inactive) | 9.68 µM (inactive) | 1.56 µM (inactive) |  |  |
| COc1cc2c(cc1O)c(O)cc1c3cc(OC)c(OC)cc3c[n+](C)c21 | > 100 µM (inactive) | 32.9 µM (inactive) |  | > 100 µM (inactive) | > 78.2 µM (inactive) | 19 µM (inactive) | > 43.3 µM (inactive) | 53.5 µM (inactive) | 35.3 µM (inactive) | 1.13 µM (inactive) | 28.2 µM (inactive) | > 32.8 µM (inactive) | > 67.5 µM (inactive) | > 100 µM (inactive) | 1.24 µM (inactive) | 15.2 µM (inactive) | > 91 µM (inactive) | 0.0225 µM (active) | 8.87 µM (inactive) |
| Cc1ccc(S(=O)(=O)N/N=C2\C=C[C@]3(CC2)C(=O)N(C)c2ccccc23)cc1 | > 100 µM (inactive) |  | > 100 µM (inactive) | > 100 µM (inactive) | > 100 µM (inactive) | > 100 µM (inactive) | > 100 µM (inactive) | > 100 µM (inactive) | > 100 µM (inactive) | > 100 µM (inactive) | > 100 µM (inactive) | > 100 µM (inactive) | > 100 µM (inactive) | > 100 µM (inactive) | > 100 µM (inactive) |  | > 100 µM (inactive) |  | > 100 µM (inactive) |
| Cn1c(-c2cccc([N+](=O)[O-])c2)[n+](C)c2ccccc21 | > 100 µM (inactive) | 89.3 µM (inactive) | 29.2 µM (inactive) | > 100 µM (inactive) | 46.8 µM (inactive) | 76.7 µM (inactive) | 17.7 µM (inactive) | > 100 µM (inactive) | > 100 µM (inactive) | > 100 µM (inactive) | > 100 µM (inactive) | > 100 µM (inactive) | > 100 µM (inactive) | > 100 µM (inactive) |  | 40.9 µM (inactive) | > 100 µM (inactive) |  | 49 µM (inactive) |
| COC(=O)C1=C(C)NC(C)=C(C(=O)OC)C1c1cccc(NO)c1 | 15.9 µM (inactive) | 16.4 µM (inactive) |  | > 100 µM (inactive) | 15 µM (inactive) | 15.5 µM (inactive) | 16.7 µM (inactive) | 11.5 µM (inactive) | 16.6 µM (inactive) | > 100 µM (inactive) | 13.7 µM (inactive) | > 100 µM (inactive) | 13.9 µM (inactive) | 16.4 µM (inactive) | 18.5 µM (inactive) | 16 µM (inactive) | 56.8 µM (inactive) | 7 µM (inactive) | 16.4 µM (inactive) |
| CN(C)CCO/N=C1/C=C2CC[C@H]3[C@@H]4CC[C@H](O)[C@@]4(C)CC[C@@H]3[C@@]2(C)CC1 | 10.8 µM (inactive) |  |  | 15.7 µM (inactive) | 18.2 µM (inactive) | 8.71 µM (inactive) | 16.2 µM (inactive) | 12.3 µM (inactive) | 12.9 µM (inactive) | 27.4 µM (inactive) | 10.7 µM (inactive) | 25.2 µM (inactive) | 9.59 µM (inactive) | 12.5 µM (inactive) | 11.7 µM (inactive) | 1.05 µM (active) | 9.82 µM (inactive) | 1.67 µM (inactive) | 13.9 µM (inactive) |
| Cc1cc(OP2(=O)NCc3ccncc3O2)ccc1Cl (configuration not stated) | > 100 µM (inactive) |  |  | > 100 µM (inactive) | > 100 µM (inactive) | > 100 µM (inactive) | > 100 µM (inactive) | > 100 µM (inactive) | > 100 µM (inactive) | > 100 µM (inactive) | > 100 µM (inactive) | > 100 µM (inactive) | > 100 µM (inactive) | > 100 µM (inactive) | > 100 µM (inactive) | > 100 µM (inactive) | > 100 µM (inactive) |  | > 100 µM (inactive) |
| CN(C)c1ccc(C2CC(=O)CC(c3ccc(N(C)C)cc3)C23C(=O)NC(=S)NC3=O)cc1 (configuration not stated) | > 100 µM (inactive) | > 100 µM (inactive) | > 100 µM (inactive) | > 100 µM (inactive) | > 100 µM (inactive) | > 100 µM (inactive) | > 100 µM (inactive) | > 100 µM (inactive) | 36 µM (inactive) | 71.3 µM (inactive) | > 100 µM (inactive) | > 100 µM (inactive) | 45.7 µM (inactive) | > 100 µM (inactive) | > 100 µM (inactive) | > 100 µM (inactive) | 99.3 µM (inactive) |  |  |
| CC12CCC(C(Nc3cc(C(F)(F)F)cc(C(F)(F)F)c3)C1=O)C2(C)C (configuration not stated) | > 100 µM (inactive) | > 100 µM (inactive) |  | > 100 µM (inactive) | > 100 µM (inactive) | > 100 µM (inactive) | > 100 µM (inactive) | > 100 µM (inactive) | > 100 µM (inactive) | > 100 µM (inactive) | > 100 µM (inactive) | > 100 µM (inactive) |  | > 100 µM (inactive) |  | > 100 µM (inactive) | > 100 µM (inactive) |  | > 100 µM (inactive) |
| CC[C@H]1C=CCC[C@@]2(C[C@@H]3CC[C@@H]4[C@H](C(=O)OCCCCCCCCCCCCCCCC(=O)N(CCCN)CCCCN)[C@]5(CCC[C@@H](C)O5)NC(=[N+]34)N2)O1 | 0.0459 µM (active) | 0.04 µM (active) |  | 1.56 µM (inactive) | 0.0428 µM (active) | < 0.01 µM (active) | 0.0336 µM (active) | 0.0519 µM (active) | 0.275 µM (active) | 0.381 µM (active) | 0.0547 µM (active) | 0.0344 µM (active) | 0.071 µM (active) | 0.108 µM (active) | 0.0753 µM (active) | 0.0364 µM (active) | 0.0641 µM (active) | 0.0425 µM (active) | 0.155 µM (active) |
| CCOC(=O)C(CC(=O)OC)NC(=O)C(CC(=O)OC)NC(=O)C(CC(=O)OC)NC(=O)C(CC(=O)OC)NC(=O)OCc1ccccc1 (configuration not stated) (Cbz-D(OMe)D(OMe)D(OMe)D(OMe)-OEt; configuration not given here) | > 100 µM (inactive) | > 100 µM (inactive) | > 100 µM (inactive) | > 100 µM (inactive) | > 100 µM (inactive) | > 100 µM (inactive) | > 100 µM (inactive) | > 100 µM (inactive) | > 100 µM (inactive) | > 100 µM (inactive) | > 100 µM (inactive) | > 100 µM (inactive) | > 100 µM (inactive) | > 100 µM (inactive) | > 100 µM (inactive) | > 100 µM (inactive) | > 100 µM (inactive) |  | > 100 µM (inactive) |
